Laboratory results from ChEMBL document CHEMBL4334431, “Gramicidin S-inspired antimicrobial cyclodextrin to disrupt gram-negative and gram-positive bacterial membranes” (Medchemcomm, 2019).
In brackets after ≈: the same amount, converted by molar mass.

How the values were obtained:
[1] = tested on: Erythrocyte; test: Haemolytic activity in rabbit RBCs at 10 times MIC; type: ADME, cell-based, Oryctolagus cuniculus
[2] = tested on: Staphylococcus aureus; test: Antibacterial activity against Staphylococcus aureus FDA 209P assessed as bacterial growth inhibition after 20 hrs by liquid microdilution method; type: functional
[3] = tested on: Bacillus subtilis; test: Antibacterial activity against Bacillus subtilis 168 assessed as bacterial growth inhibition after 20 hrs by liquid microdilution method; type: functional; conditions: Bacillus subtilis, 168, 20 h
[4] = tested on: Escherichia coli; test: Antibacterial activity against Escherichia coli K12 W3110 assessed as bacterial growth inhibition after 20 hrs by liquid microdilution method; type: functional; conditions: K-12 substr. W3110, 20 h
[5] = tested on: Salmonella typhimurium; test: Antibacterial activity against Salmonella typhimurium LT2 assessed as bacterial growth inhibition after 20 hrs by liquid microdilution method; type: functional, Salmonella enterica subsp. enterica serovar Typhimurium; conditions: Salmonella enterica, LT2, 20 h
[6] = tested on: Pseudomonas aeruginosa; test: Antibacterial activity against Pseudomonas aeruginosa PAO1 assessed as bacterial growth inhibition after 20 hrs by liquid microdilution method; type: functional; conditions: PAO1, 20 h
[7] = Haemolytic activity in rabbit RBCs at 50 uM relative to control; type: ADME, cell-based, Oryctolagus cuniculus, Erythrocyte; conditions: rabbit red blood cells (erythrocytes), read-out: Activity
[8] = Partition coefficient, log P of compound; type: physicochemical; conditions: octanol/water
[9] = tested on: Escherichia coli; test: Antimicrobial activity against ESBL-producing Escherichia coli assessed as bacterial growth inhibition after 20 hrs by liquid microdilution method; type: functional
[10] = tested on: Escherichia coli; test: Antimicrobial activity against carbapenem-resistant Escherichia coli assessed as bacterial growth inhibition after 20 hrs by liquid microdilution method; type: functional
[11] = tested on: Pseudomonas aeruginosa; test: Antibacterial activity against carbapenem-reistant Pseudomonas aeruginosa PAO1 assessed as bacterial growth inhibition after 20 hrs by liquid microdilution method; type: functional; conditions: PAO1, 20 h
[12] = tested on: Staphylococcus aureus; test: Antibacterial activity against Staphylococcus aureus FDA 209P at sub-MIC treated over 11 serial passages by resistant development assay; type: functional
[13] = tested on: Escherichia coli; test: Antimicrobial activity against […] at sub-MIC treated by resistant development assay; type: functional; conditions: K-12 substr. W3110

**Q.** What does the source list for CCC(=O)O[C@@H]1[C@@H](OC(=O)CC)[C@H]2O[C@H]3[C@H](OC(=O)CC)[C@@H](OC(=O)CC)[C@@H](O[C@H]4[C@H](OC(=O)CC)[C@@H](OC(=O)CC)[C@@H](O[C@H]5[C@H](OC(=O)CC)[C@@H](OC(=O)CC)[C@@H](O[C@H]6[C@H](OC(=O)CC)[C@@H](OC(=O)CC)[C@@H](O[C@H]7[C@H](OC(=O)CC)[C@@H](OC(=O)CC)[C@@H](O[C@@H]1[C@@H](Cn1cc(CN)nn1)O2)O[C@@H]7Cn1cc(CN)nn1)O[C@@H]6Cn1cc(CN)nn1)O[C@@H]5Cn1cc(CN)nn1)O[C@@H]4Cn1cc(CN)nn1)O[C@@H]3Cn1cc(CN)nn1?
**A.** Activity [1]: Non-Toxic; MIC [2]: 6 µM (≈ 12.8 µg/mL); MIC [3]: 3 µM (≈ 6.38 µg/mL); MIC [4]: 3 µM (≈ 6.38 µg/mL); MIC [5]: 6 µM (≈ 12.8 µg/mL); MIC [6]: 3 µM (≈ 6.38 µg/mL); hemolysis at 50 µM [7]: 3%; logP [8]: -0.89; MIC [9]: 5 µM (≈ 10.6 µg/mL); MIC [10]: 5 µM (≈ 10.6 µg/mL); MIC [11]: 5 µM (≈ 10.6 µg/mL); MIC [12]: 6 µM (≈ 12.8 µg/mL); MIC [13]: 3 to 6 µM (≈ 6.38 to 12.8 µg/mL)
